Data from US10730022B2, “Process for the separation of organic compounds” (VITO NV, priority 2015, dated 2020).
Where “and” joins values, the source holds several entries; their conditions need not be identical. Equal entries are not always repeated.

Legend:
[1] = % uncharged amine at pH 10, calculated using Henderson-Hasselbalch equation; assay type: physicochemical; settings: for % uncharged at pH 10: calculated using Henderson-Hasselbalch equation; for uncharged/charged ratio of the amine at the pH of the feed solution: pH 10 feed
Description: Assuming that only the uncharged amine can pass through the membrane, the (theoretical) extractable amount can be calculated using the % uncharged amine at pH 10 (Table 1). For MPPA (596 mg in feed solution) and MBA (484 mg in the feed solution) this corresponds to 113 mg and 358 mg theoretical extractable amine, respectively. After 7 h, 15% of this amount was extracted for MPPA, while only 3% of this amount was extracted for MBA.

[2] = membrane contactor extraction of MPPA/IPA mixture from pH 10 feed into pH 3 sodium acetate collection solution (Example 2); assay type: physicochemical; settings: pH 3 collection, 30° C., 20 l/h, 300 to 500 mbar
Description: A mixture of isopropyl amine (IPA) and 1-methyl-3-phenylpropylamine (MPPA) in a pH 10 aqueous buffer (feed solution) was applied to a first compartment of a membrane contactor module, with the second compartment comprising a sodium acetate buffer (pH 3) (collection solution). The membrane separation was performed at a flow rate of 20 l/h, temperature of 30° C. and transmembrane pressure of 300 to 500 mbar. Feed and collection solutions were continuously recycled in the membrane contactor module. The membrane used was a phenyl phosphonic acid functionalized ceramic membrane (as in Example 1), wherein both the external surface as the internal surface of the pores was linked to the organic moiety. The amine concentration in the extracting sodium acetate solution was followed up over time (FIG. 5).

[3] = membrane contactor extraction of transamination reaction mixture in organic solvent into pH 3 sodium acetate buffer (Example 3); assay type: physicochemical; settings: organic solvent feed, pH 3 sodium acetate extracting solution
Description: An enzymatically catalysed transamination reaction is performed in an organic solvent, using benzyl acetone (BA) and isopropyl amine (IPA) as respectively substrate ketone and substrate amine. […] The resulting products are acetone (as co-product ketone) and (S-)1-methyl-3-phenylpropylamine (S-MPPA—a chiral amine). This reaction is prone to product inhibition by MPPA.
The reaction mixture is passed through a membrane contactor module, using an acidic sodium acetate buffer (pH 3) as extracting solution.

[4] = octanol/water; cited from earlier work
[5] = cited from earlier work
[6] = cited from earlier work; remark: listed apart in the source
[7] = membrane contactor extraction of MPPA/MBA mixture from pH 10 feed into pH 3 sodium acetate collection solution (Example 1); assay type: physicochemical; settings: for time of membrane extraction after which amine was detected in the acidic extracting solution: MPPA/MBA mixture, pH 10 feed, pH 3 collection, 30° C., 20 l/h, 300-500 mbar; for % of theoretical extractable amount extracted: after 7 h; for theoretical extractable amine: from % uncharged at pH 10, 596 mg MPPA and 484 mg MBA in feed
Description: A mixture of MPPA and MBA in a pH 10 aqueous buffer (feed solution) was applied to a first compartment of a membrane contactor module, with the second compartment comprising a sodium acetate buffer (pH 3) (collection solution). The membrane separation was performed at a flow rate of 20 l/h, a temperature of 30° C. and a transmembrane pressure of 300-500 mbar. Feed and collection solutions were continuously recycled in the membrane contactor module. The membrane used was a phenyl phosphonic acid functionalized ceramic membrane, wherein both the external surface as the internal surface of the pores was linked to the organic moiety. […] The amine concentration in the extracting sodium acetate solution was followed up over time (FIG. 4).

SMILES	% uncharged at pH 10 [1]	time of membrane extraction after which amine was detected in the acidic extracting solution [2]	membrane passage behaviour [3]	LogP [4]	pKa [5]	solubility in aqueous liquids [6]	uncharged/charged ratio of the amine at the pH of the feed solution [1]	time of membrane extraction after which amine was detected in the acidic extracting solution [7]	% of theoretical extractable amount extracted [7]	theoretical extractable amine [7]
CC(C)N [IPA, isopropyl amine]	16%	about 7 h	mainly remains in the feed solution	0.391	10.73					
CC(=O)CCc1ccccc1 [BA, benzyl acetone]						10 mM and 1.48 g/1				
CC(N)CCc1ccccc1 (stereo not shown) [MPPA, 1-methyl-3-phenylpropylamine]	19%	less than 1 h	efficiently passes the membrane	2.264	10.63		≈ 0.25	less than 1 h	15%	113 mg
CNCc1ccccc1 [MBA, methylbenzylamine]	74%			1.7	9.54		≈ 3	3.5 h	3%	358 mg
